Reference: patent US6504030B1, “Polymorphic form of clopidogrel hydrogen sulphate” (Sanofi-Synthelabo, priority 1998, dated 2003)
Where a name gives a salt, the structure may show the parent alone.

Key:
platelet aggregation = settings: enantiomers compared, per EP 281459; cited from earlier work
[1] = compared with Form 1
[2] = compared with dextrorotatory isomer, per EP 281459; cited from earlier work

Structure (SMILES)	platelet aggregation inhibiting activity (platelet aggregation)	compactness of bulk solid [1]	electrostatic behaviour of bulk solid [1]	tolerance [2]
COC(=O)[C@H](c1ccccc1Cl)N1CCc2sccc2C1 [clopidogrel hydrogen sulfate, hydrogen sulfate of methyl (+)-(S)-α-(2-chlorophenyl)-4,5,6,7-tetrahydrothieno[3,2-c]pyridine-5-acetate]	excellent platelet aggregation inhibiting activity	–	–	–
COC(=O)[C@H](c1ccccc1Cl)N1CCc2sccc2C1.O=S(=O)(O)O [Form 2, hydrogen sulfate of methyl (+)-(S)-α-(2-chlorophenyl)-4,5,6,7-tetrahydrothieno[3,2-c]pyridine-5-acetate]	–	more compact	much less electrostatic than Form 1	–
COC(=O)C(c1ccccc1Cl)N1CCc2sccc2C1 (single isomer, unassigned) [levorotatory isomer]	less active	–	–	less well tolerated
